Test results: patent publication US20170312253A1 (The Third Affiliated Hospital, Third Military Medical …, priority 2014, published 2017)

Legend:
Tau protein = experiment: Western blot of phosphorylated Tau protein; type: in vivo; details: AD mice
Protocol: (§1) APPswe/PS1DE9 (AD) transgenic mice were purchased from Jackson Laboratory, USA (No. 005864), raised in the SPF grade animal house of The Third Affiliated Hospital of The Third Military Medical University. All the processes and correlated experiments applied to the mice were approved and filed with the Animal Ethics Committee of the Third Military Medical University. […] Alternatively, the daily dose for the prophylactic group may be 6.4 mg/kg, and the daily dose for the treatment group may be 12.8 mg/kg. […]
The enzymes related with Aβ formation and degradation their molecule levels, the levels of hyperphosphprylated Tau proteins, and the levels of synaptic plasticity correlated proteins were all detected with Western blot. […] The blotting was detected with the following antibodies: APP C terminal antibody (171610, Millipore), BACE1 antibody (Millipore), Aβ antibody (6E10, Abcam), Nepriiysin antibody (Millipore), RAGE antibody (Millipore), LRP antibody (5A6, Calbiochem), IDE antibody (epitomics), phosphorylated Tau protein antibody, including pS396 (Signalway), pT231 (Signalway), pS199 (epitomics), pS262 (Abcam), SNAP25 antibody (Millipore), Synaptophysin antibody (Millipore), Synapsin I antibody (Millipore), VAMP1 antibody (Millipore), PSD95 antibody (Millipore), F-actin antibody (Actin) (Sigma-Aldrich). […]

[1] = system: APPswe/PS1DE9 (AD) transgenic mice; experiment: Morris water maze; type: in vivo; details: prophylactic and therapeutic test, vs control group
Protocol: (§2) APPswe/PS1DE9 (AD) transgenic mice were purchased from Jackson Laboratory, USA (No. 005864), raised in the SPF grade animal house of The Third Affiliated Hospital of The Third Military Medical University. All the processes and correlated experiments applied to the mice were approved and filed with the Animal Ethics Committee of the Third Military Medical University. […] Alternatively, the daily dose for the prophylactic group may be 6.4 mg/kg, and the daily dose for the treatment group may be 12.8 mg/kg. Administration from 3-month old to 9-month old is the prophylactic test, and administration from 9-month old to 12-month old is the therapeutic test After reaching a stated time, the mice in each group received behavioral tests according to the method in the follows. Three mice in each group were taken for Golgi staining. […] The entire process was recorded by video, and analyzed with an image analysis software (ANY-maze, Stoelting). In the platform test, the escape path length and escape latency were measured and calculated. In the probe test, the time in each quadrant and the time across platform were measured. […] In the open field test, the mouse was put in the center of an open field for 3 min, and its path was recorded by a tracking system (Limelight, ActiMetrics). At the same time, the numbers of rearing, grooming, defecation and urination of the mouse were recorded.

Aβ fibers (Aβ 42) = Aβ fibers (Aβ 42) (Homo sapiens, UniProt P05067); experiment: Thioflavin T fluorescence test, disaggregation of Aβ fibers; type: biochemical; details: preformed Aβ fibers, Edaravone 0-100 μM, three days
[2] = system: oxidation level in the brain; experiment: Oxidation level in brain tissues, DNPH Western blotting; type: in vivo; details: AD mice
Protocol: as §1, with “mg/kg. Administration from 3-month old to 9-month old is the prophylactic test, and administration from 9-month old to 12-month old is the therapeutic test After reaching a stated time, the mice in each group received behavioral tests according to the method in the follows. Three mice in each group were taken for Golgi staining.” for “mg/kg.”
The carbonyl level of the proteins in the tissue reflects the oxidation level in the tissue. DNPH is reacted with the carbonyl of the proteins to form a protein-DNP hydrazone complex, and the level of the complex can he detected with DNPH antibodies so as to assess the oxidation level in the tissue, A 5 μl sample of fresh brain tissues was co-incubated with 12% SDS and a 10 μl DNPH working solution at room temperature for 20 min. […] Samples containing 15 μg total proteins were loaded and detected with Western blot. […]

α-secretase = α-secretase activity in brain tissues (kit); type: in vivo; details: AD mice brain
Protocol: (§3) APPswe/PS1DE9 (AD) transgenic mice were purchased from Jackson Laboratory, USA (No. 005864), raised in the SPF grade animal house of The Third Affiliated Hospital of The Third Military Medical University. All the processes and correlated experiments applied to the mice were approved and filed with the Animal Ethics Committee of the Third Military Medical University. […] Alternatively, the daily dose for the prophylactic group may be 6.4 mg/kg, and the daily dose for the treatment group may be 12.8 mg/kg. Administration from 3-month old to 9-month old is the prophylactic test, and administration from 9-month old to 12-month old is the therapeutic test After reaching a stated time, the mice in each group received behavioral tests according to the method in the follows. Three mice in each group were taken for Golgi staining. The remaining mice were overly anaesthetized to receive brain anatomy. One side of the cerebral hemisphere was frozen and then for a biochemical analysis, and the other side of the cerebral hemisphere was fixed with 4% paraform for a histological analysis.
After homogenating the frozen brain tissues, extraction was conducted with TBS, SDS and formic acid successively. The TBS, SDS and formic acid extracts represent soluble Aβ, loosen senile plaques and compact senile plaques, respectively. […]

[3] = system: ischemia-reperfused elderly rats; details: cited from earlier work
Gsk-3β = target: T1, Gsk-3β (Mus musculus, UniProt Q9WV60); experiment: Gsk-3β activity in the brain of AD mice; type: in vivo
T1 construct: from tissue; host or cells: brain of APPswe/PS1DE9 mice
Protocol: as §3

[4] = system: APPswe/PS1DE9 (AD) transgenic mice; experiment: Open field test; type: in vivo; details: AD mice vs control group
Protocol: as §2

Aβ fibers (Aβ 42), sequence (P05067 672-713 limits assumed): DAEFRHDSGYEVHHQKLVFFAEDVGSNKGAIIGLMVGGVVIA
T1 sequence (Q9WV60 whole entry): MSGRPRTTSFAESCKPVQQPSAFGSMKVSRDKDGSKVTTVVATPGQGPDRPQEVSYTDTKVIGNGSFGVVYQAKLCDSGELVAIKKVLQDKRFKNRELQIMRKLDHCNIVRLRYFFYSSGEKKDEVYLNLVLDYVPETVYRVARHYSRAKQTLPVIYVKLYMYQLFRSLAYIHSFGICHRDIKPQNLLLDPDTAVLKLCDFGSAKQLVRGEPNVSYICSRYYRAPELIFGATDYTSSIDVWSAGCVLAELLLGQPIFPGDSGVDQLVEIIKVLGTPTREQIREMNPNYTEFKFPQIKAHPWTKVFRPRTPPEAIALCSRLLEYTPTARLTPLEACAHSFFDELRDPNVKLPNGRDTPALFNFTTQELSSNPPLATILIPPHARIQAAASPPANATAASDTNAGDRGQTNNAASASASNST

CC1=NN(c2ccccc2)C(=O)C1 [Edaravone, 3-methyl-1-phenyl-2-pyrazolin-5-one]
phosphorylation level of Tau protein (Tau protein): reduce the phosphorylation level of Tau protein at multiple pathological sites
Morris water maze escape time [1]: reduction of escape time
Morris water maze times across platform [1]: increase in times across platform
disaggregation of formed Aβ fibers (thioflavin T) (Aβ fibers (Aβ 42)): disaggregate the formed Aβ fibers or larger aggregates effectively
oxidation level in the brain [2]: significantly reduces the oxidation level
activity of α-secretase (α-secretase): increase of the activity of α-secretase
JNK-c-Jun pathway [3]: suppress the JNK-c-Jun pathway
glutathione peroxidase activity [3]: reduce the glutathione peroxidase activity
neuronal apoptosis [3]: decrease the neuronal apoptosis
activity of Gsk-3β (Gsk-3β): inhibit the activity of Gsk-3β
open field probe distance [4]: significantly higher than in the control group
open field rearings [4]: significantly higher than in the control group
